Source: the NIST ThermoML archive (doi:10.1021/je800894y)
± gives the expanded uncertainty stated by the source.

Settings: Liquid; for viscosity: Vibrating wire viscometry; for mass density: vibrating-wire apparatus

CC(C)CCCC(C)CCCC(C)CCCCC(C)CCCC(C)CCCC(C)C (centres undefined) [2,6,10,15,19,23-hexamethyltetracosane]
Settings | mass density [kg/m3] | viscosity [mPa·s]
303.18 K, 1070 kPa | 802 ± 10 | 22 ± 0.5
303.18 K, 5300 kPa | 803.5 ± 10 | 24.2 ± 0.5
303.18 K, 5740 kPa | 804.4 ± 10 | 24.4 ± 0.5
303.18 K, 15580 kPa | 806.9 ± 10 | 30.3 ± 0.6
303.18 K, 25530 kPa | 813.9 ± 10 | 36.9 ± 0.8
303.18 K, 35790 kPa | 826.5 ± 10 | 44.3 ± 0.9
303.18 K, 45770 kPa | 825.1 ± 10 | 54.6 ± 1.1
303.18 K, 55770 kPa | 825.9 ± 10 | 66.3 ± 1.4
348.13 K, 5270 kPa | 776.9 ± 1.6 | 5.59 ± 0.12
348.13 K, 5290 kPa | 777 ± 1.6 | 5.6 ± 0.12
348.13 K, 25490 kPa | 790.6 ± 1.6 | 7.79 ± 0.16
348.13 K, 56280 kPa | 807.7 ± 1.6 | 12.3 ± 0.3
348.13 K, 85860 kPa | 821.2 ± 1.6 | 18.4 ± 0.4
348.13 K, 115830 kPa | 832.6 ± 1.7 | 26.9 ± 0.6
348.13 K, 145930 kPa | 844.3 ± 1.7 | 38.7 ± 0.8
348.13 K, 175120 kPa | 843.2 ± 12 | 55.6 ± 1.2
398.15 K, 5160 kPa | 746.3 ± 1.5 | 2.17 ± 0.05
398.15 K, 5230 kPa | 746.4 ± 1.5 | 2.17 ± 0.05
398.15 K, 25310 kPa | 763.3 ± 1.5 | 2.89 ± 0.06
398.15 K, 56100 kPa | 783.5 ± 1.6 | 4.24 ± 0.09
398.15 K, 85890 kPa | 799.5 ± 1.6 | 5.88 ± 0.12
398.15 K, 115450 kPa | 812.6 ± 1.6 | 7.93 ± 0.17
398.15 K, 145820 kPa | 824.7 ± 1.7 | 10.6 ± 0.2
398.15 K, 176100 kPa | 835.4 ± 1.7 | 13.8 ± 0.3
448.25 K, 5580 kPa | 716.3 ± 1.4 | 1.17 ± 0.03
448.25 K, 5730 kPa | 716.5 ± 1.4 | 1.18 ± 0.03
448.25 K, 25470 kPa | 736.8 ± 1.5 | 1.54 ± 0.03
448.25 K, 55510 kPa | 759.9 ± 1.5 | 2.17 ± 0.05
448.25 K, 85620 kPa | 778.7 ± 1.6 | 2.89 ± 0.06
448.25 K, 115510 kPa | 793.3 ± 1.6 | 3.76 ± 0.08
448.25 K, 145580 kPa | 806.4 ± 1.6 | 4.78 ± 0.1
448.25 K, 176050 kPa | 818.2 ± 1.6 | 5.99 ± 0.13
